Data taken from patent US20250051337A1 (priority 2021, published 2025).
Read-outs that look alike come from different tables or passages of the source.

Tests used:
STK4 = STK4 (Homo sapiens (Human), UniProt Q13043); test: ADP-Glo kinase assay, STK4; type: biochemical; details: ADP-Glo, 50 μM ATP; read-out: STK4 IC50
Procedure: (§1) The STK3 kinase assay was performed in 5 μL reaction buffer containing 50 ng recombinant human STK3 protein (full length, SignalChem #S24-10G; Richmond, Canada), 250 μg/mL myelin basic protein (Sigma-Aldrich #M1891; St. Louis, MO, USA), and 50 μM ATP (Sigma-Aldrich #A7699). The STK4 kinase assay was performed in 5 μL reaction buffer containing 50 ng recombinant human STK4 protein (full length, SignalChem #S25-10G), 300 μg/mL Axltide (SignalChem #A16-58), and 50 μM ATP. […] Three experiments were performed, each in triplicate.

STK3 = STK3 (Homo sapiens (Human), UniProt Q13188); test: ADP-Glo kinase assay, STK3; type: biochemical
Procedure: as §1

[1] = ADP-Glo, 50 μM ATP, read-out: STK3 IC50

Chain of STK3 (Q13188 whole entry): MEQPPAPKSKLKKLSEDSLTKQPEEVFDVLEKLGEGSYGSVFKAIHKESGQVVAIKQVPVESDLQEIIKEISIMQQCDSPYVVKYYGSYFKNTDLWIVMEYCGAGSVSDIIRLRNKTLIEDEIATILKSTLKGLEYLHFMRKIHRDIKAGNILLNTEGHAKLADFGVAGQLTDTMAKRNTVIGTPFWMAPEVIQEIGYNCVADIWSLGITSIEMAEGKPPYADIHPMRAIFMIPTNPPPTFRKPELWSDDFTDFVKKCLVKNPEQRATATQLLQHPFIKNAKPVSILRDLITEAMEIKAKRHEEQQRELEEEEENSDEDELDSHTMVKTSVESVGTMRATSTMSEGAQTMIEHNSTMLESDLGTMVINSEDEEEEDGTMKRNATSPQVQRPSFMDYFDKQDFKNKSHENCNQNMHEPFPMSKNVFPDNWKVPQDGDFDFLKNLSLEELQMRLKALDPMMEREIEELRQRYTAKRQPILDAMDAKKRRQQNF
Chain of STK4 (Q13043 whole entry): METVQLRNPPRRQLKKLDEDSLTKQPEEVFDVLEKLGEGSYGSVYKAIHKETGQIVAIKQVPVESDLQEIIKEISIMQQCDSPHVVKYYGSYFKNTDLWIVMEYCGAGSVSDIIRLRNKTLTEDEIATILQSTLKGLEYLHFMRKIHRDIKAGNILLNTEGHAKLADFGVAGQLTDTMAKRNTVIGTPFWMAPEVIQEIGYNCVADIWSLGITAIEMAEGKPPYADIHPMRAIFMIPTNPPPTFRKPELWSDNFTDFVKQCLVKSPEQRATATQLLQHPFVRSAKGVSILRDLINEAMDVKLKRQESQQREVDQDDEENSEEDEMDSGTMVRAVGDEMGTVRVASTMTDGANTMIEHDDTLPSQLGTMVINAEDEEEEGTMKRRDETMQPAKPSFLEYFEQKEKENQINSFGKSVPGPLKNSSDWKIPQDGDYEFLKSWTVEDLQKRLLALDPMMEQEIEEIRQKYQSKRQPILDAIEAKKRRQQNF

Structure (SMILES)	IC50 (STK4)	IC50 (STK3; [1])	IC50 (STK3)
C=CC(=O)Cc1nc(N2CCOCC2)c2c(-c3cccc(Cl)c3)c[nH]c2n1 [Compound 97, 1-(5-(3-chlorophenyl)-4-morpholino-7H-pyrrolo[2,3-d]pyrimidin-2-yl)but-3-en-2-one]	> 5000 nM	> 5000 nM	–
CNS(=O)(=O)c1ccc(Nc2nc(N3CCOCC3)c3c(-c4cccc(Cl)c4)c[nH]c3n2)cc1 [Compound 98, 4-((5-(3-chlorophenyl)-4-morpholino-7H-pyrrolo[2,3-d]pyrimidin-2-yl)amino)-N-methylbenzenesulfonamide]	< 1000 nM	< 1000 nM	–
COC(=O)c1ccc(Nc2nc(N3CCOCC3)c3c(-c4cccc(Cl)c4)c[nH]c3n2)cc1 [Compound 99, methyl 4-((5-(3-chlorophenyl)-4-morpholino-7H-pyrrolo[2,3-d]pyrimidin-2-yl)amino)benzoate]	> 5000 nM	> 5000 nM	–
O=C(O)c1ccc(Nc2nc(N3CCOCC3)c3c(-c4cccc(Cl)c4)c[nH]c3n2)cc1 [Compound 100, 4-((5-(3-chlorophenyl)-4-morpholino-7H-pyrrolo[2,3-d]pyrimidin-2-yl)amino)benzoic acid]	< 1000 nM	1000 to 5000 nM	–
O=[N+]([O-])c1ccc(Nc2nc(N3CCOCC3)c3c(-c4cccc(Cl)c4)c[nH]c3n2)cc1 [Compound 101, 5-(3-chlorophenyl)-4-morpholino-N-(4-nitrophenyl)-7H-pyrrolo[2,3-d]pyrimidin-2-amine]	> 5000 nM	> 5000 nM	–
CN(C)C1CCN(c2ncnc3[nH]cc(-c4cccc(Cl)c4)c23)CC1 [Compound 107, 1-(5-(3-chlorophenyl)-7H-pyrrolo[2,3-d]pyrimidin-4-yl)-N,N-dimethylpiperidin-4-amine]	< 1000 nM	< 1000 nM	–
CC1CCN(c2ncnc3[nH]cc(-c4cccc(Cl)c4)c23)CC1 [Compound 109, 5-(3-chlorophenyl)-4-(4-methylpiperidin-1-yl)-7H-pyrrolo[2,3-d]pyrimidine]	< 1000 nM	< 1000 nM	–
COC1CCN(c2ncnc3[nH]cc(-c4cccc(Cl)c4)c23)CC1 [Compound 110, 5-(3-chlorophenyl)-4-(4-methoxypiperidin-1-yl)-7H-pyrrolo[2,3-d]pyrimidine]	< 1000 nM	< 1000 nM	–
O=C1CCN(c2ncnc3[nH]cc(-c4cccc(Cl)c4)c23)CC1 [Compound 118, 1-(5-(3-chlorophenyl)-7H-pyrrolo[2,3-d]pyrimidin-4-yl)piperidin-4-one]	< 1000 nM	–	1000 to 5000 nM
N#Cc1ccc(Nc2nc(N3CCOCC3)c3c(-c4cccc(Cl)c4)c[nH]c3n2)cc1 [Compound 120, 4-((5-(3-chlorophenyl)-4-morpholino-7H-pyrrolo[2,3-d]pyrimidin-2-yl)amino)benzonitrile]	> 5000 nM	> 5000 nM	–
COCC(C)CN(C)c1ncnc2[nH]cc(-c3cccc(Cl)c3)c12 (stereo not shown) [Compound 122, 5-(3-chlorophenyl)-N-(3-methoxy-2-methylpropyl)-N-methyl-7H-pyrrolo[2,3-d]pyrimidin-4-amine]	1000 to 5000 nM	1000 to 5000 nM	–
CC(=O)NC1(C)CCN(c2ncnc3[nH]cc(-c4cccc(Cl)c4)c23)CC1 [Compound 124, N-(1-(5-(3-chlorophenyl)-7H-pyrrolo[2,3-d]pyrimidin-4-yl)-4-methylpiperidin-4-yl)acetamide]	1000 to 5000 nM	1000 to 5000 nM	–
CC(=O)N(C)CC(C)CN(C)c1ncnc2[nH]cc(-c3cccc(Cl)c3)c12 (stereo not shown) [Compound 128]	1000 to 5000 nM	< 1000 nM	–

The next lines start with results.

IC50 (STK4)	IC50 (STK3; [1])	Structure (SMILES)	IC50 (STK3)
< 1000 nM	< 1000 nM	CC(O)CNc1ncnc2[nH]cc(-c3cccc(Cl)c3)c12 (stereo not shown) [Compound 104, 1-((5-(3-chlorophenyl)-7H-pyrrolo[2,3-d]pyrimidin-4-yl)amino)propan-2-ol]	–
< 1000 nM	< 1000 nM	CCCCNc1ncnc2[nH]cc(-c3cccc(Cl)c3)c12 [Compound 116, N-butyl-5-(3-chlorophenyl)-7H-pyrrolo[2,3-d]pyrimidin-4-amine]	–
< 1000 nM	< 1000 nM	CC(CO)CNc1ncnc2[nH]cc(-c3cccc(Cl)c3)c12 (stereo not shown) [Compound 117, 3-((5-(3-chlorophenyl)-7H-pyrrolo[2,3-d]pyrimidin-4-yl)amino)-2-methylpropan-1-ol]	–
< 1000 nM	< 1000 nM	COCC(C)CNc1ncnc2[nH]cc(-c3cccc(Cl)c3)c12 (stereo not shown) [Compound 123, 5-(3-chlorophenyl)-N-(3-methoxy-2-methylpropyl)-7H-pyrrolo[2,3-d]pyrimidin-4-amine]	–
< 1000 nM	< 1000 nM	CC(CNc1ncnc2[nH]cc(-c3cccc(Cl)c3)c12)C(N)=O (stereo not shown) [Compound 125, 3-((5-(3-chlorophenyl)-7H-pyrrolo[2,3-d]pyrimidin-4-yl)amino)-2-methylpropanamide]	–
1000 to 5000 nM	1000 to 5000 nM	CC(CNc1ncnc2[nH]cc(-c3cccc(Cl)c3)c12)C(=O)O (stereo not shown) [Compound 126, 3-((5-(3-chlorophenyl)-7H-pyrrolo[2,3-d]pyrimidin-4-yl)amino)-2-methylpropanoic acid]	–
< 1000 nM	< 1000 nM	CC(CN)CNc1ncnc2[nH]cc(-c3cccc(Cl)c3)c12 (stereo not shown) [Compound 127, N^1-(5-(3-chlorophenyl)-7H-pyrrolo[2,3-d]pyrimidin-4-yl)-2-methylpropane-1,3-diamine]	–
< 1000 nM	< 1000 nM	CC(=O)NCC(C)CNc1ncnc2[nH]cc(-c3cccc(Cl)c3)c12 (stereo not shown) [Compound 129, N-(3-((5-(3-chlorophenyl)-7H-pyrrolo[2,3-d]pyrimidin-4-yl)amino)-2-methylpropyl)acetamide]	–
1000 to 5000 nM	1000 to 5000 nM	CC(=O)NCC(C)CNc1ncnc2[nH]cc(-c3ccccc3)c12 (stereo not shown) [Compound 130, N-(2-methyl-3-((5-phenyl-7H-pyrrolo[2,3-d]pyrimidin-4-yl)amino)propyl)acetamide]	–
> 5000 nM	> 5000 nM	CNCC(C)CNc1ncnc2[nH]cc(-c3cccc(Cl)c3)c12 (stereo not shown) [Compound 131, N^1-(5-(3-chlorophenyl)-7H-pyrrolo[2,3-d]pyrimidin-4-yl)-N^3,2-dimethylpropane-1,3-diamine]	–
